Active and inactive are the calls of the source. The calls are words filed in the database; no cut-off is given here.
What was measured:
Mus musculus [1] = species on record: Mus musculus
Description: Mydriatic effect in iv dosed NMRI albino mouse assessed as concentration required to increase pupil diameter by 200%

in vivo = conditions: NMRI albino, mouse, iv
Description: Acute toxicity in iv dosed NMRI albino mouse assessed as lethality up to 24 hrs

Mus musculus [2] = species on record: Mus musculus; experiment: animal or person; conditions: NMRI, Hypothalamus, ip
Mus musculus [3] = species on record: Mus musculus; experiment: animal or person; conditions: NMRI, Hypothalamus, ip; remark: listed apart in the source
Mus musculus [4] = species on record: Mus musculus; experiment: animal or person; conditions: NMRI, Hypothalamus, ip; remark: listed apart in the source
Mus musculus [5] = species on record: Mus musculus; experiment: animal or person; conditions: NMRI, ip
Mus musculus [6] = experiment: Antidepressant activity in NMRI albino mouse assessed as increase in locomotion at 20 mg/kg, ip after 2 hrs relative to vehicle-treated control; format: functional, organism-based; design: dose 20 mg/kg
Mus musculus [7] = experiment: Antidepressant activity in NMRI albino mouse assessed as hyperactivity by measuring motor excitation at 20 mg/kg, ip after 2 hrs relative to vehicle-treated control; format: functional, organism-based; design: dose 20 mg/kg
Mus musculus [8] = experiment: Antidepressant activity in NMRI albino mouse assessed as hyperactivity by measuring irritability at 20 mg/kg, ip after 2 hrs relative to vehicle-treated control; format: functional, organism-based; design: dose 20 mg/kg
Mus musculus [9] = experiment: Antidepressant activity in NMRI albino mouse assessed as hyperactivity by measuring sniffing at 20 mg/kg, ip after 2 hrs relative to vehicle-treated control; format: functional, organism-based; design: dose 20 mg/kg
Mus musculus [10] = experiment: Antidepressant activity in NMRI albino mouse assessed as hyperactivity by measuring tremor at 20 mg/kg, ip after 2 hrs relative to vehicle-treated control; format: functional, organism-based; design: dose 20 mg/kg
Mus musculus [11] = experiment: Antidepressant activity in NMRI albino mouse assessed as hyperactivity by measuring rearing at 20 mg/kg, ip after 2 hrs relative to vehicle-treated control; format: functional, organism-based; design: dose 20 mg/kg
Mus musculus [12] = experiment: Antidepressant activity in NMRI albino mouse assessed as hyperactivity by measuring circling of head at 20 mg/kg, ip after 2 hrs relative to vehicle-treated control; format: functional, organism-based; design: dose 20 mg/kg
Mus musculus [13] = experiment: Antidepressant activity in NMRI albino mouse assessed as hyperactivity by measuring repetitive movements of head at 20 mg/kg, ip after 2 hrs relative to vehicle-treated control; format: functional, organism-based; design: dose 20 mg/kg
Mus musculus [14] = experiment: Induction of hyperactivity in NMRI albino mouse at 20 mg/kg, ip in presence of pimozide; format: functional, organism-based; design: dose 20 mg/kg
Mus musculus [15] = experiment: Induction of hyperactivity in NMRI albino mouse at 20 mg/kg, ip in presence of phenoxybenzamine; format: functional, organism-based; design: dose 20 mg/kg
Mus musculus [16] = experiment: Induction of hyperactivity in NMRI albino mouse at 20 mg/kg, ip in presence of methergoline; format: functional, organism-based; design: dose 20 mg/kg
Mus musculus [17] = experiment: Induction of hyperactivity in NMRI albino mouse at 20 mg/kg, ip in presence of reserpine; format: functional, organism-based; design: dose 20 mg/kg
Mus musculus [18] = experiment: Induction of hyperactivity in NMRI albino mouse at 20 mg/kg, ip in presence of alpha-methyltyrosine; format: functional, organism-based; design: dose 20 mg/kg
[19] = molecular target: Sodium-dependent noradrenaline transporter (Mus musculus, UniProt O55192)
Description: Inhibition of noradrenaline transporter in NMRI albino mouse brain assessed as [3H]NA accumulation in hypothalamus after 5 mins

[20] = molecular target: Sodium-dependent serotonin transporter (Mus musculus, UniProt Q60857)
Sodium-dependent serotonin transporter, sequence (Q60857 whole entry): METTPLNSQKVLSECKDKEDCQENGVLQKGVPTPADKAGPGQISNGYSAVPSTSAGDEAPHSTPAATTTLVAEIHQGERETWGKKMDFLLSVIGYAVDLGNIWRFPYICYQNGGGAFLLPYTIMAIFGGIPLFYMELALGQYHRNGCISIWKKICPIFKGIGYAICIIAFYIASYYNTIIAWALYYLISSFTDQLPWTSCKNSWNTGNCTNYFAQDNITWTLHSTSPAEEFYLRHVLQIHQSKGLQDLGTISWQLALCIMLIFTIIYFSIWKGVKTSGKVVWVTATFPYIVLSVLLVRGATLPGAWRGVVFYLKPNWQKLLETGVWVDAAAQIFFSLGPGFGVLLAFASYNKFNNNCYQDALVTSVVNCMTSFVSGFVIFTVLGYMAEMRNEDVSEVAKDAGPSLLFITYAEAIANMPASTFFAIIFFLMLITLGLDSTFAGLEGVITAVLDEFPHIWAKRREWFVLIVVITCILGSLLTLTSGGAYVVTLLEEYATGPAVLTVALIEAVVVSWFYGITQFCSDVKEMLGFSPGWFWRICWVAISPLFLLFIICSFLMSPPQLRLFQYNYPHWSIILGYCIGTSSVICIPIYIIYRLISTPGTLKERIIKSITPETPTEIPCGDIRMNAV

Sodium-dependent noradrenaline transporter, sequence (O55192 whole entry): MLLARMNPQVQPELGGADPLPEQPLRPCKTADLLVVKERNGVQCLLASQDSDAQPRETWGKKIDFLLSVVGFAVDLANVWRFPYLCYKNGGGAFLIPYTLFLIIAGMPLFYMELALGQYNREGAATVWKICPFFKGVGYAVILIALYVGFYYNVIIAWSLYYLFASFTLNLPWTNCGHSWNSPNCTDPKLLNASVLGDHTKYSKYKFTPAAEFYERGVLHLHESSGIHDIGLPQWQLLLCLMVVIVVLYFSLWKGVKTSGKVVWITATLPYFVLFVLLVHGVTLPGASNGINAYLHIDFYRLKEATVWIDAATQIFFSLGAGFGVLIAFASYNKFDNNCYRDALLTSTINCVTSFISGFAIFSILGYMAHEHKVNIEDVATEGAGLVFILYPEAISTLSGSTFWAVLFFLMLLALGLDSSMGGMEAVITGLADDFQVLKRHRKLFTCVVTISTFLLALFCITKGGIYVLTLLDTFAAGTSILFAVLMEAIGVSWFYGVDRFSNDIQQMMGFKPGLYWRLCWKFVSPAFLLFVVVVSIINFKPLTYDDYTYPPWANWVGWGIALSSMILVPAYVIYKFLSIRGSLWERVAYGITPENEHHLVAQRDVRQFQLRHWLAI

| SMILES | PD200 (Mus musculus [1]) [µmol/kg] | LD50 at 24 h (in vivo) [µmol/kg] | ED50 (Mus musculus [2]) [µmol/kg] | ED50 (Mus musculus [3]) [µmol/kg] | ED50 (Mus musculus [4]) [µmol/kg] | ED50 (Mus musculus [5]) [µmol/kg] | Activity (Mus musculus [6]) | Activity (Mus musculus [7]) | Activity (Mus musculus [8]) | Activity (Mus musculus [9]) | Activity (Mus musculus [10]) | Activity (Mus musculus [11]) | Activity (Mus musculus [12]) | Activity (Mus musculus [13]) | IC50 [19] [nM] | IC50 [20] [nM] | other results |
| --- | --- | --- | --- | --- | --- | --- | --- | --- | --- | --- | --- | --- | --- | --- | --- | --- | --- |
| CN(C)CCCN1c2ccccc2CCc2ccc(Cl)cc21 [CLOMIPRAMINE] | 6 | 142 | 109 | 20 | > 113 | 8 |  |  |  |  |  |  |  |  |  |  |  |
| CN(C)C1CC(c2ccccc2)(c2ccccc2)C1.Cl | 24 | 104 | 32 | 48 | 104 | 17 | Active | Active | Active | Active | Active | Active | Active | Active | 800 | 900 | Activity (Mus musculus [14]): inactive; Activity (Mus musculus [15]): Active; Activity (Mus musculus [16]): Active; Activity (Mus musculus [17]): inactive; Activity (Mus musculus [18]): Active |
| CNC1CC(c2ccccc2)(c2ccccc2)C1.Cl | 9 | 128 | 31 | 95 | 91 | 9 | Active | Active | Active | Active | Active | Active | Active | Active | 800 | 3000 |  |
| Cl.NC1CC(c2ccccc2)(c2ccccc2)C1 | 15 | 192 | 103 | 162 | > 154 | > 38 | Active | Active | Active | Active | Active | Active | Active | Active | 2200 | 2800 |  |
